Measurements taken from ChEMBL document CHEMBL5029145, “Discovery of AZD8154, a Dual PI3Kγδ Inhibitor for the Treatment of Asthma” (J Med Chem, 2021).
In brackets after ≈: the same amount, converted by molar mass. Activity calls are given as the source filed them. The calls are words filed in the database; no cut-off is given here.

How the values were obtained:
[1] = target: T1, Phosphatidylinositol 4,5-bisphosphate 3-kinase catalytic subunit delta isoform (Homo sapiens, UniProt O00329); experiment: Inhibition of PI3Kdelta in anti-IgM-stimulated human JeKo-1 cells assessed as inhibition of AKT phosphorylation at Ser473 residue incubated for 60 mins by TR-FRET assay
T1 sequence (O00329 whole entry): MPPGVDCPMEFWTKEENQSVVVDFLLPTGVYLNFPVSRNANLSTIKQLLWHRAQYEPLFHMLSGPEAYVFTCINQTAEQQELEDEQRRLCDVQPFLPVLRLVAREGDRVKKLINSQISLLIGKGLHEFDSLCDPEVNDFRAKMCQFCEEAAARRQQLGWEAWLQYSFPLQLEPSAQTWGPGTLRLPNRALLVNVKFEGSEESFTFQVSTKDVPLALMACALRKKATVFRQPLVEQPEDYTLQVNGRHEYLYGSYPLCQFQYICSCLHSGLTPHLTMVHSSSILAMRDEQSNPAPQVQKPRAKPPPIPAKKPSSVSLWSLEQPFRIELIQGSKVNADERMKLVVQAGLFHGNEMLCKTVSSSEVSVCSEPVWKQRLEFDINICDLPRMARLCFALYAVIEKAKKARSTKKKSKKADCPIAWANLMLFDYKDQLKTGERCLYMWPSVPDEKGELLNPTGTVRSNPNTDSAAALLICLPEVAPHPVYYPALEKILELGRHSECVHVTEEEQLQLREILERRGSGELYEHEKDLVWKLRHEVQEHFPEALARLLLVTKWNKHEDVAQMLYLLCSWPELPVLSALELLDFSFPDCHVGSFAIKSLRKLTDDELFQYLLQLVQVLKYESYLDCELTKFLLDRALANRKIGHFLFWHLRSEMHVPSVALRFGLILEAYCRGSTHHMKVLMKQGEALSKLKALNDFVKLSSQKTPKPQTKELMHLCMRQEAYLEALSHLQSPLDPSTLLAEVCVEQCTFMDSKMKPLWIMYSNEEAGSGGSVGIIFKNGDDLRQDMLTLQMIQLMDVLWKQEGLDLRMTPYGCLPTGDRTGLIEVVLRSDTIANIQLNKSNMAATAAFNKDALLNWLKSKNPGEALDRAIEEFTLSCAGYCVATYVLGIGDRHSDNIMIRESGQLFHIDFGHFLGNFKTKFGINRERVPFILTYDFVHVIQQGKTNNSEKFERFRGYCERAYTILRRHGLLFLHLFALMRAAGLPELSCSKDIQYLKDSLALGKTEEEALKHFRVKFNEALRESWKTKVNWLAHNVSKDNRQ

[2] = target: Phosphatidylinositol 4,5-bisphosphate 3-kinase catalytic subunit alpha isoform (Homo sapiens, UniProt P42336); experiment: Inhibition of recombinant human PI3Kalpha assessed as reduction in ADP production using Dic8-PIP2 as substrate pre-treated for 15 mins followed by substrate addition measured after 60 mins by ADP-glo assay
[3] = target: Phosphatidylinositol 4-kinase alpha (Homo sapiens, UniProt P42356); experiment: Inhibition of PI4KA (unknown origin) assessed as reduction in substrate phosphorylation by FRET Adapta assay
Rattus norvegicus [4] = experiment: Antiinflammatory activity in ovalbumin induced Brown Norway rat assessed as reduction in eosinophil counts in lung lavage fluid at 240 microg/kg administered using nebulizer for 12 hrs prior to ovalbumin challenge measured after 48 hrs by flow cytometry; format: functional, organism-based; settings: dose 240.0 µg/kg, time 60.0 hrs
[5] = Apparent terminal half life in rat administered via inhalation; format: ADME; settings: in vivo, inhaled or intranasal
[6] = target: T2, Phosphatidylinositol 4,5-bisphosphate 3-kinase catalytic subunit delta isoform/gamma isoform (Homo sapiens) (UniProt P48736+O00329); experiment: Inhibition of PI3kgamma/delta in eotaxin-3-stimulated human eosinophils derived from asthmatic patient assessed as reduction in CD11b expression pre-incubated for 30 mins followed by eotaxin-3 stimulation for 30 mins by flow cytometry; format: tissue-based; settings: Eosinophil, time 60.0 min
[7] = target: Phosphatidylinositol 4-phosphate 3-kinase C2 domain-containing subunit alpha (Homo sapiens, UniProt O00443); experiment: Inhibition of PIK3C2A (unknown origin) assessed as reduction in substrate phosphorylation by FRET Adapta assay
[8] = Half life in rat plasma at 0.5 mg/kg, iv; format: ADME, organism-based
[9] = target: Phosphatidylinositol 4-kinase beta (Homo sapiens, UniProt Q9UBF8); experiment: Inhibition of PI4KB (unknown origin) assessed as reduction in substrate phosphorylation by FRET Adapta assay
[10] = target: Phosphatidylinositol 4-phosphate 3-kinase C2 domain-containing subunit beta (Homo sapiens, UniProt O00750); experiment: Inhibition of PIK3C2B (unknown origin) assessed as reduction in substrate phosphorylation by FRET Adapta assay
[11] = Distribution coefficient, logD of compound at pH 7.4; format: physicochemical; settings: octanol/water
[12] = Apparent permeability in human Caco2 cells; format: ADME, cell-based; settings: caco-2
[13] = target: T2, Phosphatidylinositol 4,5-bisphosphate 3-kinase catalytic subunit delta isoform/gamma isoform (Homo sapiens); experiment: Inhibition of PI3kgamma/delta in anti-CD2/3/28-stimulated human PBMC cells derived from asthmatic patient assessed as reduction in IL-17 release pre-incubated for 1 hr followed by anti-CD2/3/28 stimulation measured after 24 hrs by flow cytometry; format: cell-based; settings: time 25.0 hrs
[14] = target: Phosphatidylinositol 4,5-bisphosphate 3-kinase catalytic subunit gamma isoform (Mus musculus, UniProt Q9JHG7); experiment: Inhibition of PI3Kgamma in C5a-stimulated mouse RAW 264 cells assessed as inhibition of AKT phosphorylation at Ser473 residue Pretreated for 15 mins followed by C5a stimulation measured after 3 mins by HTRF assay; format: cell-based
[15] = Clearance in rat at 0.5 mg/kg, iv; format: ADME, organism-based; settings: in vivo
[16] = Permeability in human Caco2 cells; format: ADME, cell-based; settings: caco-2
[17] = Thermodynamic stability assessed as onset melting temperature; format: physicochemical
[18] = Solubility of compound in at pH 7.4 at 1 mg/ml using crystalline form of sample incubated for 24 hrs by HPLC MS analysis; format: physicochemical
Rattus norvegicus [19] = experiment: Antiinflammatory activity in ovalbumin induced Brown Norway rat assessed as reduction in eosinophil counts in lung lavage fluid at 240 microg/kg administered using nebulizer for 24 hrs prior to ovalbumin challenge measured after 48 hrs by flow cytometry; format: functional, organism-based; settings: dose 240.0 µg/kg, time 72.0 hrs

T2 sequence (P48736 whole entry, looked up, one chain of several, the tested form may be a part, canonical isoform): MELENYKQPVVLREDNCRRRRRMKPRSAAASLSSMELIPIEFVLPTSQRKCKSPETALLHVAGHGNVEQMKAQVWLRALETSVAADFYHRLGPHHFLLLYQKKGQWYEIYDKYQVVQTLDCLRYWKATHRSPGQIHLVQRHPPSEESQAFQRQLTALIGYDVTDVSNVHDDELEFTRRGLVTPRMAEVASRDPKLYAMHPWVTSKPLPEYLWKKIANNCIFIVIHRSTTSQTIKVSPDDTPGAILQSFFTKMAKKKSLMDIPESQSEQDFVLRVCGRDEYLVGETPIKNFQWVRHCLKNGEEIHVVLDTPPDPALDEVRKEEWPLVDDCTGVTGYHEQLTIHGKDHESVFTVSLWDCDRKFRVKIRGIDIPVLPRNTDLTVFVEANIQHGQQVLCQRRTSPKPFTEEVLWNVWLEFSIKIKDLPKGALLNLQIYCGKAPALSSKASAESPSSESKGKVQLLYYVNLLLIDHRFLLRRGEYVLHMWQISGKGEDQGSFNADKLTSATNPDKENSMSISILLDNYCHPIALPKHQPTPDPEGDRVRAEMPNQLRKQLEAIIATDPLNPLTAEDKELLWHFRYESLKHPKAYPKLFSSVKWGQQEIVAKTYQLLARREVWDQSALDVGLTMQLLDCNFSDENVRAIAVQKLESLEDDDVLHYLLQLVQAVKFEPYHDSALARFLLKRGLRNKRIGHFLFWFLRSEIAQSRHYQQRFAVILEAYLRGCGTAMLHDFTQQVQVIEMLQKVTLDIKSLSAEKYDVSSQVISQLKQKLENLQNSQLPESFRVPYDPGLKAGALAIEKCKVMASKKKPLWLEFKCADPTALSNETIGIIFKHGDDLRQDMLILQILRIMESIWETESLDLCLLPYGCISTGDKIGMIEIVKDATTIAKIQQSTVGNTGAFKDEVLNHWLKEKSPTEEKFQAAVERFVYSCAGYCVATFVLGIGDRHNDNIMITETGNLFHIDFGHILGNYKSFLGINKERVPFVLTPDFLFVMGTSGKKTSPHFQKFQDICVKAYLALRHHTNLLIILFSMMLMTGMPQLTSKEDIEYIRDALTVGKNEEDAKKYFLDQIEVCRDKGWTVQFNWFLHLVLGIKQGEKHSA
Phosphatidylinositol 4-phosphate 3-kinase C2 domain-containing subunit alpha, sequence (O00443 whole entry, the tested form may be a part): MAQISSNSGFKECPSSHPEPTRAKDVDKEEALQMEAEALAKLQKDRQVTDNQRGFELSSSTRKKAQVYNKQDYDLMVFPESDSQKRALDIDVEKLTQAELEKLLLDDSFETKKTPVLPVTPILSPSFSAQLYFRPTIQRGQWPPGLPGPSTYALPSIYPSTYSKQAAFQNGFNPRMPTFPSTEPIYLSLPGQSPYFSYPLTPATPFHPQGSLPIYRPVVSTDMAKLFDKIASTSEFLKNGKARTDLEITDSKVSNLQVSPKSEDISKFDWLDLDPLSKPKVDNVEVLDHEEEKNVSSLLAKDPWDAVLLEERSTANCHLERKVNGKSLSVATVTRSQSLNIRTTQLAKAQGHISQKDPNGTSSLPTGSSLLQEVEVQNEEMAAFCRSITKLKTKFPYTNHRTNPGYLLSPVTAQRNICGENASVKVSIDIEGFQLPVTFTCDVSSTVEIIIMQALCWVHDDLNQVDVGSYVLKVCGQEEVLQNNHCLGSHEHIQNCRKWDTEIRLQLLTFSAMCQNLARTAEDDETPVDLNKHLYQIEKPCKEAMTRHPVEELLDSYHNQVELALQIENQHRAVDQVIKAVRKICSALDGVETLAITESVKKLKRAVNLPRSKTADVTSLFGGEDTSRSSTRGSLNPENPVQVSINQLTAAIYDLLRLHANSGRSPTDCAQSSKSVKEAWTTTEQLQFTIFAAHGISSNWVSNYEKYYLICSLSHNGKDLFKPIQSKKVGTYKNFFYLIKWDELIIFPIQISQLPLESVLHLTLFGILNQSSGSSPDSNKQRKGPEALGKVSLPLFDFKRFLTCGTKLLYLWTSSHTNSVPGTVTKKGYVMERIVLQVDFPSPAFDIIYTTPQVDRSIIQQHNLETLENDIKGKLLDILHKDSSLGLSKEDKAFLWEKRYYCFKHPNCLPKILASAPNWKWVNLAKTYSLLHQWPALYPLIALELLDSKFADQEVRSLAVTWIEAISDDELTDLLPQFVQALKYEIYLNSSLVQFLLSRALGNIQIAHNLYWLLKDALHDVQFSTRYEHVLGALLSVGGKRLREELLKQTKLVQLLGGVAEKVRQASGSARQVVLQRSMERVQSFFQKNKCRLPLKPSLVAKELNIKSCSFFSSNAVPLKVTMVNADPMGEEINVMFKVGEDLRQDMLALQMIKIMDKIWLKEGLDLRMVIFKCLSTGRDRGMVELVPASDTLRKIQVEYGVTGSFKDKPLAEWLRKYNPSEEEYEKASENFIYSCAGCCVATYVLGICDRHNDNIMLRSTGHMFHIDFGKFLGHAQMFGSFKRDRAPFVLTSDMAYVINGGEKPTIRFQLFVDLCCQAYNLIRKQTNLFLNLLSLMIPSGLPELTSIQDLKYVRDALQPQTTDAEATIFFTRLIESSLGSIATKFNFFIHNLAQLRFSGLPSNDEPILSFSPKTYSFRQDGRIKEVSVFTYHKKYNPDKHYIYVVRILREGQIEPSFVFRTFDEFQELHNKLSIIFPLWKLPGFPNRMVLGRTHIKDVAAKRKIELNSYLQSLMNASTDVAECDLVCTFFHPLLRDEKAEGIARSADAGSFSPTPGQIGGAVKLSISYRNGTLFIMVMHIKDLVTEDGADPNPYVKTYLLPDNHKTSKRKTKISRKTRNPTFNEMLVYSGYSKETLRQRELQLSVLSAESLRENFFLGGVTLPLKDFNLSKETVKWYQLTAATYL
Phosphatidylinositol 4-kinase beta, sequence (Q9UBF8 whole entry, the tested form may be a part): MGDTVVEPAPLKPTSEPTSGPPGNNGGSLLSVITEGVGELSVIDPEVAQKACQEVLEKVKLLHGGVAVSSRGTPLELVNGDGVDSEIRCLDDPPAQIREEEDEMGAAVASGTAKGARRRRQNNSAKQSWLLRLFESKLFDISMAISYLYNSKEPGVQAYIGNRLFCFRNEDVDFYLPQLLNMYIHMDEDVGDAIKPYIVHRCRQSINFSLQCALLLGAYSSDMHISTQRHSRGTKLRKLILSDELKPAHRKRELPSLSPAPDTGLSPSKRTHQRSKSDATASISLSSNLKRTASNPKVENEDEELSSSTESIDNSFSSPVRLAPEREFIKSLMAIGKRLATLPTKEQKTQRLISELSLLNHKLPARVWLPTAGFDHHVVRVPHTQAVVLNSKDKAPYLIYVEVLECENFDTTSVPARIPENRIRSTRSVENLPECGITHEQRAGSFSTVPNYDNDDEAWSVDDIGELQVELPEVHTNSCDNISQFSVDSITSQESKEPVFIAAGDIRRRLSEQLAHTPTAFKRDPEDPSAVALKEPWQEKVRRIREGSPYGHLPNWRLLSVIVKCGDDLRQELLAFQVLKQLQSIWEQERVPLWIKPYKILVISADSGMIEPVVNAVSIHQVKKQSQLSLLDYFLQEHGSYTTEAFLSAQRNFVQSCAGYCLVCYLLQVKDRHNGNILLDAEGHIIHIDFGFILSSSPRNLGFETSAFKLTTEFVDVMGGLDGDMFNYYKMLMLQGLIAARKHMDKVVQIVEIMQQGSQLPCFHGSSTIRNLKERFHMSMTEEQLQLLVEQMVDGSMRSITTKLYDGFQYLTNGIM
Phosphatidylinositol 4,5-bisphosphate 3-kinase catalytic subunit alpha isoform, sequence (P42336 whole entry, canonical isoform): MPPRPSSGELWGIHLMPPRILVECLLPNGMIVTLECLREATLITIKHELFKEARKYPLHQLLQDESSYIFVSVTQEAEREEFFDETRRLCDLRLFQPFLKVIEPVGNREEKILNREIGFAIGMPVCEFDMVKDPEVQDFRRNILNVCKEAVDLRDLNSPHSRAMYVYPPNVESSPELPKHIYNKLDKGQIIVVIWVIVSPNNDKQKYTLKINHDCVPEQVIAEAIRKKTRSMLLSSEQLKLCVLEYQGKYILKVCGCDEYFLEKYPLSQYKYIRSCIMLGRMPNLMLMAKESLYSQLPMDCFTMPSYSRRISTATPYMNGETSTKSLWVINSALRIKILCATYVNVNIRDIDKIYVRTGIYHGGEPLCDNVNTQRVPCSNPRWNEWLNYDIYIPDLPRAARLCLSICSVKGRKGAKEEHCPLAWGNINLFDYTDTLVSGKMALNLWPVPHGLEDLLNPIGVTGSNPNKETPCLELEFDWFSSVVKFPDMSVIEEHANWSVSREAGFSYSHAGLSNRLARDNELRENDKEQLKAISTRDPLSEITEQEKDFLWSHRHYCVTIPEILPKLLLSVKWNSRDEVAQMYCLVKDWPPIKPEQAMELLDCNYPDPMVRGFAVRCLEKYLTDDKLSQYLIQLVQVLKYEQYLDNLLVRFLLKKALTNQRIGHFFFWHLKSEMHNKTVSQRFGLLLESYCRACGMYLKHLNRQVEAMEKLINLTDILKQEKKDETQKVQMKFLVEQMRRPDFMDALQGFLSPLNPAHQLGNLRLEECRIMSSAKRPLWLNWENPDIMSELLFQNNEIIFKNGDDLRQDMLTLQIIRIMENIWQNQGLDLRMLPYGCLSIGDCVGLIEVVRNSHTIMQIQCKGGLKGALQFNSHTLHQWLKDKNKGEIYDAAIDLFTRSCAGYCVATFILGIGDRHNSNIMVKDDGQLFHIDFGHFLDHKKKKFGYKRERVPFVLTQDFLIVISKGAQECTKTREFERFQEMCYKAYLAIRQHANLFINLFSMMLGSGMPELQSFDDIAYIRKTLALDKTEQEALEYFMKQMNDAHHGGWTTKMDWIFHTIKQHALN

IC50 [1]: 3.98 nM | IC50 [2]: 63.1 nM | IC50 [3]: > 10000 nM | half-life [5]: 7.1 h | Activity [6]: Active | IC50 [7]: 3980 nM | half-life [8]: 2.9 h | IC50 [9]: 3160 nM | IC50 [10]: 3.16 nM | logD [11]: 4.4 | Papp [12]: Impermeable | Activity [13]: Active | IC50 [14]: 0.794 nM | clearance [15]: 20 mL/min/kg | permeability [16]: Permeable | Tm [17]: 285 °C | solubility thermodynamic at 24 h [18]: 0.054 µM (≈ 0.0298 µg/mL)
Structure (SMILES): Cc1nc(Nc2cccc(N3CCCC3=O)n2)sc1-c1cc2c(c(S(C)(=O)=O)c1)C(=O)N([C@@H](C)C1CC1)C2 [AZD-8154]
Activity (Rattus norvegicus [4]): inactive | Activity (Rattus norvegicus [19]): inactive
